From US10561608B2, “Dry powder Vancomycin compositions and associated methods” (SAVARA INC., priority 2011, dated 2020) come the findings set out here.

The nature of data set [1]: Reconstituted pH of powder. The data set is classed as physicochemical. As to conditions: effect of leucine concentration. An excerpt: In certain embodiments, the dry powder composition may be reconstituted and the resulting reconstituted powder may have a pH greater than 3.0, preferably greater than 3.5 and most preferably greater than 4.0.
In some embodiments, the delivery efficiency of dry powder vancomycin compositions may be improved through the addition of small amounts of leucine (FIG. 2). […] In addition, the addition of leucine results in powders with more physiologically acceptable pH values. See Table 1 below for the effect of leucine concentration on powder water content, particle size and reconstituted pH.

Data set [2] is described as follows: Single dose plasma pharmacokinetics in healthy volunteers. As to conditions: human, in vivo, intravenous infusion 250 mg over 60 min, mean. As to the method: FIG. 11 is a graph depicting plasma concentrations as a function of time (semi-log) after a single dose administration of a vancomycin dry powder composition (Lot G-11-026-1) or intravenous administration of vancomycin (inhaled vancomycin dose 16 mg, circle; inhaled vancomycin dose 32 mg, triangle; inhaled vancomycin dose 80 mg, square; Intravenous infusion 250 mg over 60 min, circle with line).
In some embodiments, the dry powder vancomycin compositions of the present disclosure may provide an absolute bioavailability of 40% or more. Absolute bioavailability is calculated as AUC0-inf of vancomycin after the vancomycin composition administration divided by AUC0-inf of vancomycin after intravenous administration and adjusted for dose.
Following a single administration of a dry powder vancomycin composition (Lot […]) in eighteen healthy volunteers, a slow absorption phase followed by an elimination phase were observed. The main pharmacokinetic parameters after single dose administration of the inhaled vancomycin composition and intravenous vancomycin are shown in Table 7. AUC0-t refers to the area under the plasma concentration-time curve to the last measurable time point (24 h) calculated by the linear trapezoidal rule. AUC0-inf refers to the area under the concentration-time curve to infinity. Cmax refers to the maximum blood plasma concentration of vancomycin, and Tmax refers to the amount of time necessary to reach maximum blood plasma levels of vancomycin, and fin, refers to the elimination half-life associated with the terminal slope (Kel) of the semilogarithmic drug concentration-time curve, calculated as 0.693/Kel.

For orientation: AUC(0-inf) means the area under the concentration-time curve extrapolated to infinity. Usually Cmax stands for the maximum level reached in the sampled fluid or tissue. Broadly, the Tmax is the time from dosing to the highest level. By half-life is commonly meant how long it takes for the measured level to halve. A word on the AUC(0-t): it is exposure summed from dosing to a finite time, without extrapolation to infinity. The low end stands for low exposure, the high end for high exposure.

Counter-ions that a name gives are not always drawn.

`CN[C@H](CC(C)C)C(=O)N[C@H]1C(=O)N[C@@H](CC(N)=O)C(=O)N[C@H]2C(=O)N[C@H]3C(=O)N[C@H](C(=O)N[C@H](C(=O)O)c4cc(O)cc(O)c4-c4cc3ccc4O)[C@H](O)c3ccc(c(Cl)c3)Oc3cc2cc(c3OC2O[C@H](CO)[C@@H](O)[C@H](O)[C@H]2O[C@H]2C[C@](C)(N)[C@H](O)[C@H](C)O2)Oc2ccc(cc2Cl)[C@H]1O` (stereo partly drawn) [API, Vancomycin hydrochloride]: the “Reconstituted pH” value in data set [1] came out at 3.0.

On to `CN[C@H](CC(C)C)C(=O)N[C@H]1C(=O)N[C@@H](CC(N)=O)C(=O)N[C@H]2C(=O)N[C@H]3C(=O)N[C@H](C(=O)N[C@H](C(=O)O)c4cc(O)cc(O)c4-c4cc3ccc4O)[C@H](O)c3ccc(c(Cl)c3)Oc3cc2cc(c3OC2O[C@H](CO)[C@@H](O)[C@H](O)[C@H]2O[C@H]2C[C@](C)(N)[C@H](O)[C@H](C)O2)Oc2ccc(cc2Cl)[C@H]1O` (stereo partly drawn) [IV vancomycin, Vancomycin], for which, in data set [2], the AUC(0-inf) worked out at 44400 ng·h/mL, the concentration peaked (Cmax) at 10000 ng/mL, the Tmax turned out to be 0.92 h and the half-life was 7.23 h. Also, the AUC(0-t) in data set [2] (t = 24 h) stood at 41000 ng·h/mL.
